Measured values reported in patent US20240307589A1, “LEPTIN RECEPTOR AFFINITY PEPTIDE AND USE THEREOF” (Dubu Biosciences, priority 2021, published 2024).
No end group written: not given here. *: point of attachment. FITC = O=C1OC2(c3ccc(O)cc3Oc3cc(O)ccc32)c2ccc(NC(=S)*)cc21

What was measured:
rat lung injury site = assay: Recruitment of endogenous MSCs to peptide-bound collagen sponge implanted into rat lung injury site (flow cytometry); format: in vivo; conditions: rat lung defect, 12 h, 24 h or 48 h after implantation, vs control groups; FIGS. 6A to 6F
Procedure: Rats weighing about 150 g were anesthetized, intubated and subjected to partial resection on middle lobes of right lungs in the case of positive pressure ventilation of ventilators, where lung tissues with a size of about 0.5 cm*0.5 cm*0.3 cm were resected, and the collagen sponges which had been uniformly added dropwise with the CBD-affinity peptide or the control peptides and incubated for 2 h at 37° C. in advance were implanted into rat lung defect sites, respectively. After the rats were sacrificed after 12 h, 24 h or 48 h, respectively, the implanted collagen sponges were completely separated and taken out. The collagen sponges were dissolved with a collagenase, and cells adsorbed on the collagen sponges in vivo were separated and collected. Through identification of expression of CD45, CD44, CD71 and CD90 on surfaces of the cells, proportions of the numbers of MSCs adsorbed on the collagen sponges at the implantation sites were analyzed. The proportions that the MSCs accounted for in the cells digested from the collagen sponges were detected by flow cytometry.

rat lung injury sites = assay: Lung injury repair after implantation of peptide-bound collagen sponge (Masson's staining); format: in vivo; conditions: 35 days after implantation, vs control groups, FIG. 7
From the text: After a CBD-affinity peptide and control peptides were implanted into rat lung injury sites according to the above method, lung tissues were taken out 35 days later and subjected to pathological identification.

rat MSCs = assay: Binding of FITC-labeled peptide to rat MSCs by flow cytometry; format: cell-based; conditions: FITC-labeled peptides, vs M7, FIG. 4
From the text: To evaluate the species specificity of the HY7 peptide and provide a basis for subsequent animal experiments, the binding of HY7 to rat MSCs was specifically verified. Rat bone marrow cells were acquired according to a conventional method and subjected to culture and identification, and rat MSCs were obtained. The binding of an FITC-HY7 peptide and an FITC-M7 peptide to the rat MSCs was detected according to the above flow cytometry detection method.

human MSCs = assay: Binding recovery of phage to human MSCs (elution and titration); format: cell-based; conditions: vs M13KE negative control phage, FIG. 2A
Procedure: (§1) An HY7 phage monoclone and an M13KE negative control phage were amplified with reference to the method in Example 1 and titrated. The HY7 phage monoclone and the M13KE negative control phage were added to well plates containing human MSCs with a confluence pre-cultured to about 80%, and an unrelated human bone marrow stromal cell line HS-5 was set as a control. The HY7 phage monoclone and the M13KE negative control phage were subjected to binding and elution according to a step of screening phages to obtain an eluent of the HY7 phage binding to the target protein and an eluent of the M13KE negative control phage binding to the target protein, respectively. The eluent of the HY7 phage binding to the target protein and the eluent of the M13KE negative control phage binding to the target protein were titrated according to a phage titration method. The binding of the HY7 phage monoclone to the target molecule and the binding of the M13KE negative control phage to the target molecule were compared. […] FIG. 2A is a schematic diagram illustrating the binding recovery of an HY7 phage monoclone and an M13KE negative control phage to human MSCs, and FIG. 2B is a schematic diagram illustrating the binding recovery of an HY7 phage monoclone and an M13KE negative control phage to HS-5 cells.

[1] = test system: human bone marrow stromal cell line HS-5; assay: Binding recovery of phage to control HS-5 cells (elution and titration); format: cell-based; conditions: FIG. 2B
Procedure: as §1

binding ability to the rat MSCs (rat MSCs)	Substance	MSCs adsorbed to the collagen sponge (proportion of MSCs in cells digested from sponge) (rat lung injury site)	repair effect at the tissue site (rat lung injury sites)	binding to surfaces of the MSCs (binding recovery) (human MSCs)	binding to the control cells HS-5 (binding recovery) [1]
	CBD-HY7: CBD (TKKTLRT) on the N-terminus of HY7 through a linker (GGGGS or GGG-K-FITC) (TKKTLRTGGGK(FITC)HGGVRLY)	can adsorb more MSCs to the collagen sponge in a short time	better repair effect		
significantly stronger than that of M7	HGGVRLY (Leptin receptor affinity peptide) [HY7]			can specifically binds to surfaces of the MSCs	does not bind
